# Reference: the kinase profiling compilation of Christmann-Franck et al. (2016)
# Several values for one entry are separate records, joined by “and”; a condition that tells them apart may be missing. Equal values may be shown once.
# Experiments:
# Test in all cases: KINOMEscan competition binding
# Details in all cases: compound 10.0 µM
# [1] = target: CDK5 (human) (UniProt Q00535)
# [2] = target: CHEK2 (human) (UniProt O96017)
# [3] = target: CLK3 (human) (UniProt P49761)
# [4] = target: CSF1R (human) (UniProt P07333)
# [5] = target: EGFR (human) (UniProt P00533)
# [6] = tested on: EGFR (human), P00533 [746-750 del]
# [7] = tested on: EGFR (human), P00533 [747-751 del / S ins]
# [8] = tested on: EGFR (human), P00533 [752-759 del]
# [9] = tested on: EGFR (human), P00533 [A750P; 747-749 del]
# [10] = tested on: EGFR (human), P00533 [G719C]
# [11] = tested on: EGFR (human), P00533 [G719S]
# [12] = tested on: EGFR (human), P00533 [L858R]
# [13] = tested on: EGFR (human), P00533 [L861Q]
# [14] = tested on: EGFR (human), P00533 [P753S; 747-752 del]
# [15] = tested on: EGFR (human), P00533 [T790M/L858R]
# [16] = target: FGFR2 (human) (UniProt P21802)
# Chain of FGFR2 (human) (P21802 whole entry, looked up): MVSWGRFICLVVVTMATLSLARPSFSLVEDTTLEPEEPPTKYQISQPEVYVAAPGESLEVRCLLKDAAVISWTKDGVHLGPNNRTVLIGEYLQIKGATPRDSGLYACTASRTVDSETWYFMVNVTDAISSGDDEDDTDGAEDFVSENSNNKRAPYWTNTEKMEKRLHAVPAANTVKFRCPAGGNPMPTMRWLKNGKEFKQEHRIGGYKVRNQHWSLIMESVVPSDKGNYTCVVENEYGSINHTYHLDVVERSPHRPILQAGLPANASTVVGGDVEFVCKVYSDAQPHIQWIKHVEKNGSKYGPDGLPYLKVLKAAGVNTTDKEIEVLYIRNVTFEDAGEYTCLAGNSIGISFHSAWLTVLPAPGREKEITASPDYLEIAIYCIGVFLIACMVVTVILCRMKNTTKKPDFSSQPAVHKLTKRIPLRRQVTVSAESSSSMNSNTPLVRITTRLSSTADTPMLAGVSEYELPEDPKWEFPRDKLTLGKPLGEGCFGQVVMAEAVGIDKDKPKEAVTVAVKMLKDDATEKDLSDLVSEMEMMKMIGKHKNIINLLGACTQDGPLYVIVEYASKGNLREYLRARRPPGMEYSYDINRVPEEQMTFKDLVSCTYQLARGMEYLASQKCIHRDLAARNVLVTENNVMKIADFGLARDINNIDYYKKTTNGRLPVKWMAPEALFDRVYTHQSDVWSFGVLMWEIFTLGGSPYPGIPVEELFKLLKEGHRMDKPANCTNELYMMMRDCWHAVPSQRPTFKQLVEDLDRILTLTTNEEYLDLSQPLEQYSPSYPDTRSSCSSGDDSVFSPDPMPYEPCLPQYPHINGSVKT
# [17] = target: HIPK1 (human) (UniProt Q86Z02)
# [18] = target: NLK (human) (UniProt Q9UBE8)
# Chain of NLK (human) (Q9UBE8 whole entry, looked up): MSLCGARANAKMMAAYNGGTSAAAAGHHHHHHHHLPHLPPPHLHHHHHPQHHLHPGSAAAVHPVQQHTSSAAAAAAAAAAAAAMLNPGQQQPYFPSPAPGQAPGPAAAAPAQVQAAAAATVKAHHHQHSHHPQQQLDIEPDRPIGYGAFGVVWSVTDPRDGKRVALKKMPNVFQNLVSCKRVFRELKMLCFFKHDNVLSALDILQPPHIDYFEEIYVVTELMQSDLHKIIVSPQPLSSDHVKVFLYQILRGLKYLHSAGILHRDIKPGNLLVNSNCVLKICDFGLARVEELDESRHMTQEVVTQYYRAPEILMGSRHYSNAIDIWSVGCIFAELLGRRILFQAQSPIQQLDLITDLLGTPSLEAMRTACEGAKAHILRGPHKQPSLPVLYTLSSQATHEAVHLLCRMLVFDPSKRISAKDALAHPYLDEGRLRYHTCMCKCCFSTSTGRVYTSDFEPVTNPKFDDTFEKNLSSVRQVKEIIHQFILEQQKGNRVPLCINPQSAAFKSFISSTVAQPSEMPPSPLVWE
# [19] = target: PDGFRA (human) (UniProt P16234)
# [20] = target: PIK3CB (human) (UniProt P42338)
# [21] = target: PKN1 (human) (UniProt Q16512)
# [22] = target: RPS6KA3 KD1 (human) (UniProt P51812)
# [23] = target: SIK3 (human) (UniProt Q9Y2K2)
# Chain of SIK3 (human) (Q9Y2K2 whole entry, looked up): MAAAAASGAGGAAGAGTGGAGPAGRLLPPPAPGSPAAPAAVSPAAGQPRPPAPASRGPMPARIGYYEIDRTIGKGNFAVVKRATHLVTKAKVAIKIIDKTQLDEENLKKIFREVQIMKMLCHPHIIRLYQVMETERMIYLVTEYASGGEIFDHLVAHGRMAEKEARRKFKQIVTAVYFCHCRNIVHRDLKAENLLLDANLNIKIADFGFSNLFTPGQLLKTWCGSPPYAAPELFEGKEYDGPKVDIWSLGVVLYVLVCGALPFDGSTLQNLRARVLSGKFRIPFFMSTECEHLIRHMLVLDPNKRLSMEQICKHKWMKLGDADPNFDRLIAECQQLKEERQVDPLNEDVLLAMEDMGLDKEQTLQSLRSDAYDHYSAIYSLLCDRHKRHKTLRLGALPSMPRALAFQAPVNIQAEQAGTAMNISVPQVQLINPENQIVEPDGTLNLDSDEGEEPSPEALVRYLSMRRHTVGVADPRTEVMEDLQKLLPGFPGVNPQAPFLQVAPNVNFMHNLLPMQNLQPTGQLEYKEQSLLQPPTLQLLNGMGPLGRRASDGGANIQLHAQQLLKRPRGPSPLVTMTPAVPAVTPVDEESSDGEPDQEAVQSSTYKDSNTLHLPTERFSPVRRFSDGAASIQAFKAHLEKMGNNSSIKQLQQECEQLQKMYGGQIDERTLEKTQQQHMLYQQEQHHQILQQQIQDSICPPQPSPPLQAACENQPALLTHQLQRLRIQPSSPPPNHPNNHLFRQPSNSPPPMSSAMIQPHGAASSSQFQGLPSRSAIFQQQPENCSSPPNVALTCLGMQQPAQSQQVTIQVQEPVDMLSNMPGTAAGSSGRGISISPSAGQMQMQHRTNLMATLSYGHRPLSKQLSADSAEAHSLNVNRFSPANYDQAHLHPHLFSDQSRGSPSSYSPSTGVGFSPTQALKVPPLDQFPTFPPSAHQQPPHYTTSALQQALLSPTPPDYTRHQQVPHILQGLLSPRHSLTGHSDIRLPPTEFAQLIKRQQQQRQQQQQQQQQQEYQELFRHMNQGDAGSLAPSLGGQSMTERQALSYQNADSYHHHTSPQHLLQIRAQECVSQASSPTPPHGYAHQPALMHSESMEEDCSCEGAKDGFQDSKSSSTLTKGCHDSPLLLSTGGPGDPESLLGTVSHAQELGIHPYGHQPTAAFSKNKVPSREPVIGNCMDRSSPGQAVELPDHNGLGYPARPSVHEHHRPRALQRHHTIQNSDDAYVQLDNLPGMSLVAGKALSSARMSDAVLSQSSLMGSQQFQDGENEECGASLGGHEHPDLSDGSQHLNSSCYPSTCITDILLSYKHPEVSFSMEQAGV
# [24] = target: TAOK1 (human) (UniProt Q7L7X3)
# Chain of TAOK1 (human) (Q7L7X3 whole entry, looked up): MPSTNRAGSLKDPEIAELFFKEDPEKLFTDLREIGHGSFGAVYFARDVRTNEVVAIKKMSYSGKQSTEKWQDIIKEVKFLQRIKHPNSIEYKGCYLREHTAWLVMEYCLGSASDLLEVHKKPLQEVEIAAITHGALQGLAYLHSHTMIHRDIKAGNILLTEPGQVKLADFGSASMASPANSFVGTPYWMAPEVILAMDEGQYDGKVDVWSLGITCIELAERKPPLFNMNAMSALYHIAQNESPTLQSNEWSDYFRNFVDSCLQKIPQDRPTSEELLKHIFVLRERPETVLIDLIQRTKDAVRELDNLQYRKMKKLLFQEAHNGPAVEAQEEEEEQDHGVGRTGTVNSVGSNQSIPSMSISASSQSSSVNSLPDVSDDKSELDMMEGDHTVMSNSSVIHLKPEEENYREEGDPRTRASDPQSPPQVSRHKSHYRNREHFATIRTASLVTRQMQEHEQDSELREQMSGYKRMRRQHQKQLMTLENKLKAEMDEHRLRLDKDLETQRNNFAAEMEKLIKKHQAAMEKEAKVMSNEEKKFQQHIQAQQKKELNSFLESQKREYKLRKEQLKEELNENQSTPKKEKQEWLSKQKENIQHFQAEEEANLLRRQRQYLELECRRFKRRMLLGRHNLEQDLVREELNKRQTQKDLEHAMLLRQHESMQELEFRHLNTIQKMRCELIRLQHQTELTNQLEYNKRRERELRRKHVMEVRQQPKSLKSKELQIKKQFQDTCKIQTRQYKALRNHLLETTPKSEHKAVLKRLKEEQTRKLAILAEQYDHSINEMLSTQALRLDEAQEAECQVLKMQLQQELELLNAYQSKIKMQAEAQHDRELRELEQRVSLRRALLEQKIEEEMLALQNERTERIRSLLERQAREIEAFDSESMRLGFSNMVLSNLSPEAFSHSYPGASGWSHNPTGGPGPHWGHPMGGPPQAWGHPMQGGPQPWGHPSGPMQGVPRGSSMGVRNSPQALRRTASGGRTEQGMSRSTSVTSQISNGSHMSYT
# [25] = target: TIE1 (human) (UniProt P35590)
# Chain of TIE1 (human) (P35590 whole entry, looked up): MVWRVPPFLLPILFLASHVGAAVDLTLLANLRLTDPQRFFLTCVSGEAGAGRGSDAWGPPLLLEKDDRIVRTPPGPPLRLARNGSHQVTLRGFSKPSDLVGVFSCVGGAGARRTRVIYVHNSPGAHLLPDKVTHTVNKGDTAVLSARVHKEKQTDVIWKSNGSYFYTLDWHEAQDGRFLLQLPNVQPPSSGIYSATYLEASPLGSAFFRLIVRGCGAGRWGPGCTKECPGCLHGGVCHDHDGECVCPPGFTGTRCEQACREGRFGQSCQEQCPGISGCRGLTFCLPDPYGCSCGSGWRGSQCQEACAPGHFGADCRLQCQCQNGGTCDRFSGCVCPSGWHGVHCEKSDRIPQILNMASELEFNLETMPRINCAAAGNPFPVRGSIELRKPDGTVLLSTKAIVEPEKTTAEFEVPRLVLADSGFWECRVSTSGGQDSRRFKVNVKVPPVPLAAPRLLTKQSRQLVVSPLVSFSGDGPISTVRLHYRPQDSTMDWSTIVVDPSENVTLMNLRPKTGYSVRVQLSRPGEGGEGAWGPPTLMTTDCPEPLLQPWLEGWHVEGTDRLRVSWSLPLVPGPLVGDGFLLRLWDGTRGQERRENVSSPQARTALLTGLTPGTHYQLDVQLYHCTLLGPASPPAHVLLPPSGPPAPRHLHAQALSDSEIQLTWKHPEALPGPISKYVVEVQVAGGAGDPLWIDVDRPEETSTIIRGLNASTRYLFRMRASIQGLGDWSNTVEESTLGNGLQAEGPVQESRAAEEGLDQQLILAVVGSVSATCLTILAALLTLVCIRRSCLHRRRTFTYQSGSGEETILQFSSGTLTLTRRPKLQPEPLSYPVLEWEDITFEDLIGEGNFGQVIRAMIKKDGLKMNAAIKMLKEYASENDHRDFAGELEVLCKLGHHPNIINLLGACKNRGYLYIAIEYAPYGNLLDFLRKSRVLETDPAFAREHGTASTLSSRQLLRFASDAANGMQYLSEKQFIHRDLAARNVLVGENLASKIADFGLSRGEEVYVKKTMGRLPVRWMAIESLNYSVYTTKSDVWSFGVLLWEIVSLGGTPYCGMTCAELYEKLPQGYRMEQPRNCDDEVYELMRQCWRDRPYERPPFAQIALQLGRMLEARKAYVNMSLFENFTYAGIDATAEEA
# [26] = target: TNNI3K (human) (UniProt Q59H18)
# Chain of CDK5 (human) (Q00535 whole entry, looked up): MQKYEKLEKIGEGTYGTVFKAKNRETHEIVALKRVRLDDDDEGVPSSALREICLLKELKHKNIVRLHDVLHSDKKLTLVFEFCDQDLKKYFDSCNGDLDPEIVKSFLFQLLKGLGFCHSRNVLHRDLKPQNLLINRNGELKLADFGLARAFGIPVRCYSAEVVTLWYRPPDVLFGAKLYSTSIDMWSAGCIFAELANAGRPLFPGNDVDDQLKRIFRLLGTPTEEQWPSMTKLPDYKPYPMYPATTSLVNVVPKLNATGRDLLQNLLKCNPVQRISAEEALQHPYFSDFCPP
structure (smiles),measurement,setting,value
Cn1cc(C2=C(c3ccc(Cl)cc3Cl)C(=O)NC2=O)c2ccccc21,"kinase still bound, per cent of control",[1],47%
same,"kinase still bound, per cent of control",[2],90%
same,"kinase still bound, per cent of control",[3],1.4%
same,"kinase still bound, per cent of control",[4],87%
same,"kinase still bound, per cent of control",[5],100%
same,"kinase still bound, per cent of control",[6],77%
same,"kinase still bound, per cent of control",[7],91%
same,"kinase still bound, per cent of control",[8],94%
same,"kinase still bound, per cent of control",[9],85%
same,"kinase still bound, per cent of control",[10],100%
same,"kinase still bound, per cent of control",[11],99%
same,"kinase still bound, per cent of control",[12],100%
same,"kinase still bound, per cent of control",[13],83%
same,"kinase still bound, per cent of control",[14],99%
same,"kinase still bound, per cent of control",[15],97%
same,"kinase still bound, per cent of control",[16],100%
same,"kinase still bound, per cent of control",[17],5%
same,"kinase still bound, per cent of control",[18],92%
same,"kinase still bound, per cent of control",[19],100%
same,"kinase still bound, per cent of control",[20],85%
same,"kinase still bound, per cent of control",[21],73%
same,"kinase still bound, per cent of control",[22],100%
same,"kinase still bound, per cent of control",[23],86%
same,"kinase still bound, per cent of control",[24],90% and 98%
same,"kinase still bound, per cent of control",[25],99%
same,"kinase still bound, per cent of control",[26],80%
O=C1Nc2cc(Br)ccc2/C1=C1/Nc2ccccc2/C1=N\O,"kinase still bound, per cent of control",[1],9.5%
same,"kinase still bound, per cent of control",[2],38%
same,"kinase still bound, per cent of control",[3],81%
same,"kinase still bound, per cent of control",[4],1.2%
same,"kinase still bound, per cent of control",[5],44%
same,"kinase still bound, per cent of control",[6],13%
same,"kinase still bound, per cent of control",[7],24%
same,"kinase still bound, per cent of control",[8],29%
same,"kinase still bound, per cent of control",[9],17%
same,"kinase still bound, per cent of control",[10],39%
same,"kinase still bound, per cent of control",[11],35%
same,"kinase still bound, per cent of control",[12],32%
same,"kinase still bound, per cent of control",[13],34%
same,"kinase still bound, per cent of control",[14],38%
same,"kinase still bound, per cent of control",[15],53%
same,"kinase still bound, per cent of control",[16],15%
same,"kinase still bound, per cent of control",[17],7.6%
same,"kinase still bound, per cent of control",[18],88%
same,"kinase still bound, per cent of control",[19],0%
same,"kinase still bound, per cent of control",[20],88%
same,"kinase still bound, per cent of control",[21],79%
same,"kinase still bound, per cent of control",[22],80%
same,"kinase still bound, per cent of control",[23],24%
same,"kinase still bound, per cent of control",[25],55%
same,"kinase still bound, per cent of control",[26],68%
Cc1cnc(-c2cnc(NCCNc3ccc(C#N)cn3)nc2-c2ccc(Cl)cc2Cl)[nH]1,"kinase still bound, per cent of control",[1],67%
same,"kinase still bound, per cent of control",[3],97%
same,"kinase still bound, per cent of control",[4],90%
same,"kinase still bound, per cent of control",[16],98%
same,"kinase still bound, per cent of control",[17],87%
same,"kinase still bound, per cent of control",[18],86%
same,"kinase still bound, per cent of control",[19],100%
same,"kinase still bound, per cent of control",[20],100%
same,"kinase still bound, per cent of control",[21],100%
same,"kinase still bound, per cent of control",[23],84%
same,"kinase still bound, per cent of control",[25],100%
same,"kinase still bound, per cent of control",[26],100%
COc1ccc(CNC(=O)Nc2ncc([N+](=O)[O-])s2)cc1,"kinase still bound, per cent of control",[1],72%
same,"kinase still bound, per cent of control",[4],97%
same,"kinase still bound, per cent of control",[16],81%
same,"kinase still bound, per cent of control",[17],58%
same,"kinase still bound, per cent of control",[18],72%
same,"kinase still bound, per cent of control",[19],100%
same,"kinase still bound, per cent of control",[20],100%
same,"kinase still bound, per cent of control",[21],100%
same,"kinase still bound, per cent of control",[23],77%
same,"kinase still bound, per cent of control",[24],85% and 100%
same,"kinase still bound, per cent of control",[25],100%
same,"kinase still bound, per cent of control",[26],100%
